Source: patent US10662171B2, “Antidiabetic bicyclic compounds” (Merck Sharp & Dohme Corp., priority 2014, dated 2020)

These molecules were tested against T1, human GPR40 (Homo sapiens, UniProt O14842) (assay: Inositol Phosphate Turnover (IP1) Assay 1). Conditions: HEK cells stably expressing human GPR40; compound transferred via pocket tip; 60 minutes at 37 degrees.
T1 construct: expressed in transfected cells; host or cells: HEK cells stably expressing the aequorin reporter
T1 sequence (O14842 whole entry): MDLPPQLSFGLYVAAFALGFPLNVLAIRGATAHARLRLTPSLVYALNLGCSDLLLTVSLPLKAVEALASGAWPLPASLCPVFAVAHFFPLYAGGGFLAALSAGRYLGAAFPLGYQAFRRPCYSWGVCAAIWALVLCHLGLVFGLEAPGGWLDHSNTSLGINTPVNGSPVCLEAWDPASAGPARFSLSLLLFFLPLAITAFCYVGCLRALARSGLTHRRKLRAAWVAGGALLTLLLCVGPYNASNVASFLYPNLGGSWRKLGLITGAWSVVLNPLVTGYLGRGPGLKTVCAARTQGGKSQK
Format: cell-based
Procedure: (§1) Human and mouse GPR40 stable cell-lines were generated in CHO cells stably expressing NFAT BLA (Beta-lactamase). A human GPR40 stable cell-line was generated in HEK cells stably expressing the aequorin expressing reporter. The expression plasmids were transfected using lipofectamine (Life Technologies) following manufacturer's instructions. Stable cell-lines were generated following drug selection.
(§2) The assay is performed in 384-well format. HEK cells stably expressing human GPR40 are plated at 15,000 cells per well in growth medium (DMEM/10% fetal calf serum). Cell plates are then incubated 16 hours at 37 degrees in a 5% CO2 incubator.
Measurement of Inositol Phosphate Turnover (IP1) is performed using the CisBio IP-One kit (Part number 62IPAPEB). After the 16 hour incubation, the cells are washed with HEPES buffer and 10 ul of stimulation buffer (prepared as described in the kit) is added to each well. In a separate plate, compounds are diluted in DMSO (400-fold over the final concentration in the assay well) and 25 nl is transferred via pocket tip to the appropriate well in the assay cell plate. The plates are then incubated for 60 minutes at 37 degrees. 10 ul of detection buffer (also prepared as described in the IP-One kit) is added to each well and the plates are incubated for 60 minutes in the dark. The plates are then read in a Perkin Elmer EnVision or equivalent reader able to measure FRET. Fluorescent ratio of emission at 665 and 620 nm is then converted to IP1 concentration by back calculating from an IP1 standard curve prepared at the time of the assay.
Molecule `COc1ccc(F)c(-c2ccc(C3Cc4cc(C(CC(=O)O)C5CC5)ccc4CO3)cc2)c1` (mixture of isomers) [Example 20, 3-cyclopropyl-3-(3-(2′-fluoro-5′-methoxy-[1,1′-biphenyl]-4-yl)isochroman-6-yl)propanoic acid] has an EC50 of 5380 nM. `COc1ccc(F)c(-c2ccc(C3COc4ccc(C(CC(=O)O)C5CC5)cc4C3)cc2)c1` (single isomer, unassigned) [Example 3] showed an EC50 of 330 nM. With `COc1ccc(F)c(-c2ccc(C3COc4ccc(C(CC(=O)O)C5CC5)cc4C3)cc2)c1` (single isomer, unassigned) [Example 4] the EC50 was 75 nM. `COc1ccc(F)c(-c2ccc(C3COc4ccc(C(CC(=O)O)C5CC5)cc4C3)cc2)c1` (single isomer, unassigned) [Example 5] was tested, and the EC50 was 106 nM. In the case of `COc1ccc(F)c(-c2ccc(C3COc4ccc([C@H](C5CC5)[C@H](C)C(=O)O)cc4C3)cc2)c1` (single isomer, unassigned) [Example 6], the EC50 is reported as 5.6 nM. In the case of `COc1ccc(F)c(-c2ccc(C3COc4ccc([C@H](C5CC5)[C@H](C)C(=O)O)cc4C3)cc2)c1` (single isomer, unassigned) [Example 7], the EC50 is reported as 3 nM. With `COc1ccc(F)c(-c2ccc(C3COc4ccc([C@@H](C5CC5)[C@@H](C)C(=O)O)cc4C3)cc2)c1` (single isomer, unassigned) [Example 8] the EC50 was 169 nM. With `COc1ccc(F)c(-c2ccc(C3COc4ccc([C@@H](C5CC5)[C@@H](C)C(=O)O)cc4C3)cc2)c1` (single isomer, unassigned) [Example 9] the EC50 was 60 nM. For `COc1cc(-c2ccc(C3COc4ccc([C@H](C5CC5)[C@H](C)C(=O)O)cc4C3)cc2)c(F)cn1` (single isomer, unassigned) [Example 10], the EC50 was 13 nM. `COc1cc(-c2ccc(C3COc4ccc([C@H](C5CC5)[C@H](C)C(=O)O)cc4C3)cc2)c(F)cn1` (single isomer, unassigned) [Example 11] showed an EC50 of 6.3 nM. Work on `COc1cc(-c2ccc(C3COc4ccc([C@H](C5CC5)[C@H](C)C(=O)O)cc4C3)cc2)ccn1` (single isomer, unassigned) [Example 15] yielded an EC50 of 26 nM. Molecule `COc1cc(-c2ccc(C3COc4ccc([C@H](C5CC5)[C@H](C)C(=O)O)cc4C3)cc2)ccn1` (single isomer, unassigned) [Example 16] has an EC50 of 12 nM. With `COc1ccc(F)c(-c2ccc(C3Cc4cc([C@H](C5CC5)[C@H](C)C(=O)O)ccc4C(=O)O3)cc2)c1` (stereo in doubt) [Example 24, (2S,3R)-3-cyclopropyl-3-((S)-3-(2′-fluoro-5′-methoxy-[1,1′-biphenyl]-4-yl)-1-oxoisochroman-6-yl)-2-methylpropanoic acid] the EC50 was 166 nM. Work on `COc1ccc(F)c(-c2ccc(C3COc4ccc(C(CC(=O)O)C5CC5)cc4C3)cc2)c1` (stereo not shown) [Example 1, 3-cyclopropyl-3-(3-(2′-fluoro-5′-methoxy-[1,1′-biphenyl]-4-yl)chroman-6-yl)propanoic acid] yielded an EC50 of 155 nM. In the case of `COc1cc(-c2ccc(C3COc4ccc([C@H](C5CC5)[C@H](C)C(=O)O)cc4C3)cc2)ccn1` (stereo partly shown) [Example 12], the EC50 is reported as 12 nM. In the case of `Cc1cccc(C)c1-c1ccc(C2COc3ccc([C@H](C4CC4)[C@H](C)C(=O)O)cc3C2)cc1` (stereo partly shown) [Example 13], the EC50 is reported as 592 nM. In the case of `COc1cc(-c2ccc(C3COc4ccc([C@H](C5CC5)[C@H](C)C(=O)O)cc4C3)c(F)c2)ccn1` (stereo partly shown) [Example 14], the EC50 is reported as 32 nM. For `C[C@H](C(=O)O)[C@H](c1ccc2c(c1)CC(c1ccc(-c3cccc(OC4CC4)c3)cc1)CO2)C1CC1` (stereo partly drawn) [Example 19, (2S,3R)-3-(3-(3′-cyclopropoxy-[1,1′-biphenyl]-4-yl)chroman-6-yl)-3-cyclopropyl-2-methylpropanoic acid], the EC50 was 250 nM. For `COc1ccc(F)c(-c2ccc([C@@H]3Cc4cc([C@H](C5CC5)[C@H](C)C(=O)O)ccc4C(=O)O3)cc2)c1` [Example 23, (2S,3R)-3-cyclopropyl-3-((S)-3-(2′-fluoro-5′-methoxy-[1,1′-biphenyl]-4-yl)-1-oxoisochroman-6-yl)-2-methylpropanoic acid], the EC50 was 424 nM. `C[C@H](C(=O)O)[C@H](c1ccc2c(c1)CC(C1CCN(Cc3cc(C(F)(F)F)ccc3C(F)(F)F)CC1)CO2)C1CC1` (stereo partly drawn) [Example 25, Sodium (2S,3R)-3-(3-(1-(2,5-bis(trifluoromethyl)benzyl)piperidin-4-yl)chroman-6-yl)-3-cyclopropyl-2-methylpropanoate] gave an EC50 of 729 nM. With `COc1ccc(F)c(-c2ccc(C3CCc4ccc(C(C5CC5)C(C)C(=O)O)cc4C3)cc2)c1` (stereo not shown) [Example 26, 3-cyclopropyl-3-(7-(2′-fluoro-5′-methoxy-[1,1′-biphenyl]-4-yl)-5,6,7,8-tetrahydronaphthalen-2-yl)-2-methylpropanoic acid] the EC50 was 24 nM. `COc1ccc(F)c(-c2ccc(C3CSc4ccc([C@H](C5CC5)[C@H](C)C(=O)O)cc4C3)cc2)c1` (stereo partly drawn) [Example 27, (2S,3R)-3-cyclopropyl-3-(3-(2′-fluoro-5′-methoxy-[1,1′-biphenyl]-4-yl)thiochroman-6-yl)-2-methylpropanoic acid] gave an EC50 of 6.9 nM. `COc1ccc(F)c(-c2ccc(C3Cc4cc([C@H](C5CC5)[C@H](C)C(=O)O)ccc4S(=O)(=O)C3)cc2)c1` (stereo partly drawn) [Example 28, (2S,3R)-3-Cyclopropyl-3-(3-(2′-fluoro-5′-methoxy-[1,1′-biphenyl]-4-yl)-1,1-dioxidothiochroman-6-yl)-2-methylpropanoic acid] was tested, and the EC50 was 69 nM.

What follows are molecules tested against T1, human GPR40 (assay: Inositol Phosphate Turnover (IP1) Assay 2). Conditions: HEK cells stably expressing human GPR40; compound acoustically transferred; 60 minutes at 37 degrees.
Format: cell-based
Procedure: as §1, §2
Measurement of Inositol Phosphate Turnover (IP1) is performed using the CisBio IP-One kit (Part number 62IPAPEB). After the 16 hour incubation, the cells are washed with HEPES buffer and 10 ul of stimulation buffer (prepared as described in the kit) is added to each well. In a separate plate, compounds are diluted in DMSO (400-fold over the final concentration in the assay well) and 25 nl is acoustically transferred to the appropriate well in the assay cell plate. The plates were then incubated for 60 minutes at 37 degrees. 10 ul of detection buffer (also prepared as described in the IP-One kit) is added to each well and the plates are incubated for 60 minutes in the dark. The plates are then read in a Perkin Elmer EnVision or equivalent reader able to measure FRET. Fluorescent ratio of emission at 665 and 620 nm is then converted to IP1 concentration by back calculating from an IP1 standard curve prepared at the time of the assay.
`COc1cc(-c2ccc(C3COc4ccc([C@H](C5CC5)[C@H](C)C(=O)O)cc4C3)c(F)c2)ccn1` (single isomer, unassigned) [Example 17] was tested, and the EC50 was 15 nM. `COc1cc(-c2ccc(C3COc4ccc([C@H](C5CC5)[C@H](C)C(=O)O)cc4C3)c(F)c2)ccn1` (single isomer, unassigned) [Example 18] was tested, and the EC50 was 8.1 nM. `COc1cc(-c2ccc(C3=Cc4cc([C@@H](C5CC5)[C@H](C)C(=O)O)ccc4CC3)c(F)c2)ccn1` (single isomer, unassigned) [Example 29] was tested, and the EC50 was 3960 nM. `COc1cc(-c2ccc(C3=Cc4cc([C@@H](C5CC5)[C@@H](C)C(=O)O)ccc4CC3)c(F)c2)ccn1` (single isomer, unassigned) [Example 30] was tested, and the EC50 was 3.8 nM. `COc1cc(-c2ccc(C3=Cc4cc([C@H](C5CC5)[C@H](C)C(=O)O)ccc4CC3)c(F)c2)ccn1` (single isomer, unassigned) [Example 31] showed an EC50 of 0.5 nM. `COc1cc(-c2ccc(C3=Cc4cc([C@H](C5CC5)[C@@H](C)C(=O)O)ccc4CC3)c(F)c2)ccn1` (single isomer, unassigned) [Example 32] gave an EC50 of 28 nM. With `COc1cc(-c2ccc(C3CCc4ccc(C(C5CC5)C(C)C(=O)O)cc4C3)c(F)c2)ccn1` (single isomer, unassigned) [Example 33, 3-cyclopropyl-3-(7-(2-fluoro-4-(2-methoxypyridin-4-yl)phenyl)-5,6,7,8-tetrahydronaphthalen-2-yl)-2-methylpropanoic acid] the EC50 was 1.4 nM. Work on `COc1cc(-c2ccc(C3CCc4ccc(C(C5CC5)C(C)C(=O)O)cc4C3)c(F)c2)ccn1` (single isomer, unassigned) [Example 34] yielded an EC50 of 13 nM. For `COc1cc(-c2ccc(C3CCc4ccc(C(C5CC5)C(C)C(=O)O)cc4C3)c(F)c2)ccn1` (single isomer, unassigned) [Example 35], the EC50 was 257 nM. `COc1cc(-c2ccc(C3CCc4ccc(C(C5CC5)C(C)C(=O)O)cc4C3)c(F)c2)ccn1` (single isomer, unassigned) [Example 36] gave an EC50 of 4.8 nM. `COc1cc(-c2ccc(C3CCc4ccc(C(C5CC5)C(C)C(=O)O)cc4C3)c(F)c2)ccn1` (single isomer, unassigned) [Example 37] showed an EC50 of 0.42 nM. For `COc1cc(-c2ccc(C3Cc4cc([C@H](C5CC5)[C@H](C)C(=O)O)ccc4CO3)cc2)c(F)cn1` (single isomer, unassigned) [Example 39A], the EC50 was 0.76 nM. Work on `COc1cc(-c2ccc(C3Cc4cc([C@H](C5CC5)[C@H](C)C(=O)O)ccc4CO3)cc2)c(F)cn1` (single isomer, unassigned) [Example 39B] yielded an EC50 of 5.2 nM. `COc1ccc(F)c(-c2ccc([C@@H]3Cc4cc([C@H](C5CC5)[C@H](C)C(=O)O)ccc4CO3)cc2)c1` [Example 21, (2S,3R)-3-cyclopropyl-3-((S)-3-(2′-fluoro-5′-methoxy-[1,1′-biphenyl]-4-yl)isochroman-6-yl)-2-methylpropanoic acid] gave an EC50 of 0.21 nM.
